Source: patent publication US20230277553A1, “THERAPEUTIC COMPOSITION OF CURE-PRO COMPOUNDS FOR TARGETED DEGRADATION OF BET DOMAIN PROTEINS, AND METHODS OF MAKING AND USAGE” (CORNELL UNIVERSITY, priority 2020, published 2023)
Entries after “also recorded” stand apart in the source; their conditions may differ.

Experiments:
MV-4-11 cells = test: CellTiter-Glo cell viability, MV-4-11 cells; assay type: cell-based; conditions: for Loss of cellular viability / toxicity, cotreated with cereblon ligands 8046, 8047 and 8066 vs monomers alone: MV-4-11, 72 hours, 1:1, 10 nM-100 μM each
Method: CellTiter-Glo® 2.0 Cell Viability Assay (Promega) was carried out following the manufacturer's recommendations. Cells were seeded at a density of 1000 cells/well in a white 96 well plates (Corning, #3917) in a total volume of 100 μl with respective monomers, combinations of BRD ligands together with E3 ligase ligands or vehicle control treatment. After a 72 h incubation, 100 ul of the CellTiter-Glo® substrate was added per well and luminescence was read on a Spectramax M5 (Molecular Devices). Dose-response curves were generated using Graphpad Prism software.
MV-4-11 cells (5×104) were treated for 24 hours with the sample compounds solubilized in DMSO. The compounds were added at 1 nM-100 μM each. Cellular viability was determined using the CellTiter-Glo® Luminescent Cell Viability Assay (Promega) described above. FIGS. 19-22 depict the CURE-PRO-mediated loss of cellular viability for BRD monomers (JQ1 derivatives comprising of catechol linkers), and CRBN ligand, 8049 (pomalidomide derivatives comprising boronic acid linkers) combined in a 1:1 ratio.
MV-4-11 cells (1×104) were treated for 72 hours with the compounds solubilized in DMSO. Compounds were added at 10 nM-100 μM each. Cellular viability was determined using the CellTiter-Glo® Luminescent Cell Viability Assay (Promega) described above. FIGS. 47-54 depict the CURE-PRO-mediated loss of cellular viability for BRD monomers (JQ1 derivatives comprising of boronic acid linkers), and CRBN ligands, 8046, 8047 and 8066 (pomalidomide derivatives comprising diol linkers) combined in a 1:1 ratio.

BRD4 [1] = target: T1, BRD4 (Homo sapiens, UniProt O60885); test: Summary of BRD4 degradation by CURE-PRO pairs, estimated from Western Blot or WES (Proteinsimple); assay type: cell-based; parameters: endogenous in cells; conditions: for Degradation of BRD4 in combination with CRBN ligand [drawing 372]: third drawing (8066); for Degradation of BRD4 in combination with CRBN ligand [drawing 370]: aromatic 1,2-diol- or hindered cis-1,2-diol-containing CRBN ligand, first drawing (8046)
Text: A black check mark indicates efficacy of 30% to 70% or higher protein degradation.

BRD4 [2] = target: T1, BRD4; test: CURE-PRO-mediated BRD4 degradation, Western blot, HeLa cells; assay type: cell-based; parameters: endogenous in cells; host or cells: HeLa; conditions: for BRD4 degradation, co-treatment with CRBN ligand 8046: 1:1 with 8046, 10 μM each; for BRD4 degradation, co-treatment with CRBN ligand 8047: 1:1 with 8047, 10 μM each; for BRD4 degradation, co-treatment with CRBN ligand 8066: 1:1 with 8066, 10 μM each (BRD-E10: 10 and 100 μM)
Method in brief: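 HeLa cells treated 24 h with compounds in DMSO (1-10 μM, 10 μM or 100 μM each; paired monomers combined 1:1), optional 15-min pretreatment with pomalidomide, VHL298, Nutlin3a (10 μM) or MG-132/carfilzomib (1 μM). RIPA lysates, 10-20 μg protein immunoblotted for BRD4 with β-actin, ECL detection.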

SLC19A1 = test: Suppression of c-MYC downstream target gene SLC19A1, RT-PCR (Cells-to-Ct), HeLa cells; assay type: cell-based, Human; conditions: 24 h, 10 μM
Method: The suppression of the expression of the downstream c-MYC target, SLC19A1, was measured by RT-PCR using Power SYBR© Green Cells-to-Ct™ Kit (Life Technologies). Adherent cells were plated on 96 well plates at 5,000 cells per well were treated for 24h with monomer compounds and compounds capable of reversible interactions (1 nM-100 μM). Cells were subsequently washed in ice-cold PBS processed according to the manufacturer's instructions. Quantitative real-time PCR was performed using a ViiA™ 7 Real-time PCR System (Applied Biosystems, Foster City, Calif., USA). GAPDH and ACTB served as internal controls. The primers used were (5′-3′): GAPDH-F: AGCCACATCGCTCAGACAC (SEQ ID NO:9), GAPDH-R: GCCCAATACGACCAAATCC (SEQ ID NO:10), ACTB —F: CCAACCGCGAGAAGATGA (SEQ ID NO: 11), ACTB -R: […] (SEQ ID NO: 12), SLC19A1-F: […] (SEQ ID NO:13), SLC19A1-R: […] (SEQ ID NO: 14).
HeLa cells (1×104) were treated for 24 hours in 96 well plates with the compounds solubilized in DMSO. Compounds were added at 10 μM each and RNA expression measured by the Cells-to Ct method described above (Thermofisher). CURE-PRO-mediated suppression of the downstream target gene of c-MYC, SLC19A1, after BRD4 degradation was evident in cells treated with the combination of BRD-N25 and 8310 or 8312 (FIG. 66) and BRD-N39 and 8310 and 8312 (FIG. 67) as indicated by a rightward shift in the curve and in increase in the Ct values.

COc1ccc2c(c1)C(c1ccc(Cl)cc1)=N[C@@H](CC(=O)NCCNC(=O)/C=C/c1ccc(B(O)O)cc1)c1nnc(C)n1-2 [BRD-E29, (4-((E)-3-((2-(2-((4S)-6-(4-chlorophenyl)-8-methoxy-1-methyl-4H-benzo[f][1,2,4]triazolo[4,3-a][1,4]diazepin-4-yl)acetamido)ethyl)amino)-3-oxoprop-1-en-1-yl)phenyl)boronic acid]
Loss of cellular viability / toxicity, cotreated with cereblon ligands 8046, 8047 and 8066 vs monomers alone (MV-4-11 cells): reduced viability; also recorded: increased toxicity | Degradation of BRD4 in combination with CRBN ligand [drawing 371] (BRD4 [1]; Table 1, CRBN ligand, second drawing (8047)): ✓ (A black check mark indicates efficacy of 30% to 70% or higher protein degradation) | Degradation of BRD4 in combination with CRBN ligand [drawing 372] (BRD4 [1]; Table 1, CRBN ligand): ✓ (A black check mark indicates efficacy of 30% to 70% or higher protein degradation) | Degradation of BRD4 in combination with CRBN ligand [drawing 370] (BRD4 [1]; Table 1): ✓ (A black check mark indicates efficacy of 30% to 70% or higher protein degradation) | BRD4 degradation, co-treatment with CRBN ligand 8046 (BRD4 [2]; 24 h, Western blot): causes degradation of BRD4; also recorded: Degradation is noted | BRD4 degradation, co-treatment with CRBN ligand 8047 (BRD4 [2]; 24 h, Western blot): causes degradation of BRD4; also recorded: Degradation is noted | BRD4 degradation, co-treatment with CRBN ligand 8066 (BRD4 [2]; 24 h, Western blot): causes degradation of BRD4; also recorded: Degradation is noted

COc1ccc2c(c1)C(c1ccc(Cl)cc1)=N[C@@H](CC(=O)NCCc1ccc(O)c(O)c1)c1nnc(C)n1-2 [BRD-N10, (S)-2-(6-(4-chlorophenyl)-8-methoxy-1-methyl-4H-benzo[f][1,2,4]triazolo[4,3-a][1,4]diazepin-4-yl)-N-(3,4-dihydroxyphenethyl)acetamide]
Loss of cellular viability / toxicity, co-dosed with CRBN ligand 8049 (MV-4-11 cells; MV-4-11, 24 hours, 1:1 with 8049, 1 nM-100 μM each): concentration-dependent loss in cellular viability; also recorded: increased toxicity | Degradation of BRD4 in combination with CRBN ligand [drawing 407] (BRD4 [1]; Table 4, aryl-boronic acid-containing CRBN ligand, first drawing (by text: 8048)): ✓ (A black check mark indicates efficacy of 30% to 70% or higher protein degradation) | Degradation of BRD4 in combination with CRBN ligand [drawing 408] (BRD4 [1]; Table 4, aryl-boronic acid-containing CRBN ligand, second drawing (by text: 8049)): ✓ (A black check mark indicates efficacy of 30% to 70% or higher protein degradation) | Degradation of BRD4 in combination with MDM2 ligand [drawing 423] (BRD4 [1]; Table 5, aryl-boronic acid-containing MDM2 ligand, first drawing (8310)): ✓ (A black check mark indicates efficacy of 30% to 70% or higher protein degradation) | BRD4 degradation, co-treatment with CRBN ligand 8048 (BRD4 [2]; 24 h, 1:1 with 8048, 1-10 μM each, Western blot): causes degradation of BRD4; also recorded: capable of degrading BRD4 | BRD4 degradation, BRD ligand alone (BRD4 [2]; 24 h, BRD monomer alone, Western blot): no degradation of BRD4

Cc1sc2c(c1C)C(c1ccc(Cl)cc1)=N[C@@H](CC(=O)Nc1ccc(OCCOCCOCCOCCNc3cccc4c3C(=O)N(C3CCC(=O)NC3=O)C4=O)cc1)c1nnc(C)n1-2 (stereo partly drawn) [ARV-825, reference compound]
Suppression of SLC19A1 expression, single compound (SLC19A1): Complete suppression of SLC19A1 was evident; also recorded: completely suppressed

CCNC(=O)C[C@@H]1N=C(c2ccc(Cl)cc2)c2cc(Sc3cccc(B(O)O)c3)ccc2-n2c(C)nnc21 [BRD-E76]
Loss of cellular viability / toxicity, cotreated with cereblon ligands 8046, 8047 and 8066 vs monomers alone (MV-4-11 cells): reduced viability; also recorded: increased toxicity | Degradation of BRD4 in combination with CRBN ligand [drawing 370] (BRD4 [1]; Table 1): ✓ (A black check mark indicates efficacy of 30% to 70% or higher protein degradation) | BRD4 degradation, co-treatment with CRBN ligand 8046 (BRD4 [2]; 24 h, Western blot): causes degradation of BRD4 | BRD4 degradation, co-treatment with CRBN ligand 8047 (BRD4 [2]; 24 h, Western blot): causes degradation of BRD4

COc1ccc2c(c1)C(c1ccc(Cl)cc1)=N[C@@H](CC(=O)NCCOCCOCCNC(=O)c1cccc(B(O)O)c1)c1nnc(C)n1-2 [BRD-E46]
Loss of cellular viability / toxicity, cotreated with cereblon ligands 8046, 8047 and 8066 vs monomers alone (MV-4-11 cells): reduced viability; also recorded: increased toxicity | Degradation of BRD4 in combination with CRBN ligand [drawing 372] (BRD4 [1]; Table 1, CRBN ligand): ✓ (A black check mark indicates efficacy of 30% to 70% or higher protein degradation) | Degradation of BRD4 in combination with CRBN ligand [drawing 370] (BRD4 [1]; Table 1): ✓ (A black check mark indicates efficacy of 30% to 70% or higher protein degradation) | BRD4 degradation, co-treatment with CRBN ligand 8046 (BRD4 [2]; 24 h, Western blot): causes degradation of BRD4; also recorded: Degradation is noted | BRD4 degradation, co-treatment with CRBN ligand 8066 (BRD4 [2]; 24 h, Western blot): causes degradation of BRD4; also recorded: Degradation is noted

Nc1cccc2c1C(=O)N(C1CCC(=O)NC1=O)C2=O (stereo not drawn) [pomalidomide, reference compound]
Suppression of SLC19A1 expression, single compound (SLC19A1): no suppression | Inhibition of CURE-PRO-mediated BRD4 degradation (BRD-E52 or BRD-E72 with 8047) by preincubation (BRD4 [2]; 15 min preincubation, equimolar (10 μM)): competitively inhibited; also recorded: inhibition of CURE-PRO-mediated BRD4 degradation

CCNC(=O)C[C@@H]1N=C(c2ccc(Cl)cc2)c2cc(OCCCCCCCNC(=O)c3ccc(B(O)O)cc3)ccc2-n2c(C)nnc21 [BRD-E78]
Loss of cellular viability / toxicity, cotreated with cereblon ligands 8046, 8047 and 8066 vs monomers alone (MV-4-11 cells): reduced viability; also recorded: increased toxicity | Degradation of BRD4 in combination with VHL ligand [drawing 397] (BRD4 [1]; Table 3, aromatic 1,2-diol-containing VHL ligand, second drawing (8305)): ✓ (A black check mark indicates efficacy of 30% to 70% or higher protein degradation)
